Test results taken from US20120134933A1, “USE OF HIGH-DOSES OF MONOMERIC CONTRAST MEDIUM CONTAINING IODINE IN X-RAY DIAGNOSTICS, IN PARTICULAR IN INTERVENTIONAL X-RAY DIAGNOSTICS AND IN RADIATION THERAPY ASSISTED BY CONTRAST MEDIA CONTAINING IODINE” (BAYER PHARMA AKTIENGESELLSCHAFT, priority 2009, published 2012).

Tests used:
Format in all cases: in vivo, Wistar Han rats
[1] = Renal iodine content 24 hours after injection of XCM, X-ray fluorescence analysis (XFA) of lysed kidneys; settings: rat, 4 g of iodine per kg of BW i.v., mean +/- SD, 6 animals
Experimental: (§1) For the study, use was made of the following XCMs, each obtained from their producer. The monomeric XCMs investigated were iopromide 300 (Bayer Vital, Leverkusen), iomeprol 300 (Altana, Konstanz, Germany), and iohexyl 350 (Omnipaque, GE Healthcare, Munich, Germany). For comparison, Isovist 300 (Bayer Vital, Leverkusen) and iodixanol 320 and iodixanol 270 (Visipaque, GE Healthcare, Munich, Germany), two dimeric XCMs, were also included in the study. The XCMs were injected in one dose of 4 g per kg of body weight (BW). As with all toxicological issues, it should be noted that the conversion to the human dose has to be based on body surface area. Thus, 4 g of iodine per kg of BW in the rat correspond to about 0.6 g of iodine per kg of BW in humans.
(§2) Wistar Han (CRL: WI) rats (male; 230-300 g) were obtained from Charles River (Sulzfeld, Germany). The animals were kept under normal laboratory conditions at a temperature of 22° C. and a night/day rhythm of 12 hours. The animals had access to standard feed and water ad libitum. The animals were kept and treated in accordance with the German animal welfare guidelines.
(§3) The respective XCMs were intravenously (i.v.) injected in one dose of 4 g of iodine per kg of BW (corresponds to 0.6 g of iodine per kg of BW in humans) into the tail vein. […] The iodine concentrations in the kidneys were determined ex vivo by X-ray fluorescence analysis (XFA). […] The kidneys were lysed in 10% KOH, and the iodine concentration in the sample was subsequently determined by XFA. The iodine concentrations in the renal cortex were determined 24 hours after the injection using a 64-slice CT scanner (Sensation 64, Siemens Medical Solutions, Erlangen, Germany). Scanner settings (80 kV, 120 mAseff) were used for all investigations, and the reconstructions were carried out with an image field of 70×70 mm and a thickness of 1 mm The X-ray attenuation in Hounsfield units (HU) was determined in the cortex of the kidney in 3 independent regions of interest (ROI) (FIG. 2). All data were carried out by two independent blinded readers.

tubular cells = experiment: Vacuolization in the kidney 24 hours after injection of XCM (histology of paraffin sections); settings: rat, 4 g of iodine per kg of BW i.v.; for degree of vacuolization in the kidney (in words): compared among monomeric XCMs
Experimental: as §1, §2
The respective XCMs were intravenously (i.v.) injected in one dose of 4 g of iodine per kg of BW (corresponds to 0.6 g of iodine per kg of BW in humans) into the tail vein. The XCMs were manually injected as a bolus, followed by a 0.2 ml bolus of saline solution. Each test group consisted of 6 test animals. The iodine concentrations in the kidneys were determined ex vivo by X-ray fluorescence analysis (XFA). 24 hours after the XCM injection, the animals were sacrificed and both kidneys were removed. The kidneys were lysed in 10% KOH, and the iodine concentration in the sample was subsequently determined by XFA. The iodine concentrations in the renal cortex were determined 24 hours after the injection using a 64-slice CT scanner (Sensation 64, Siemens Medical Solutions, Erlangen, Germany). Scanner settings (80 kV, 120 mAseff) were used for all investigations, and the reconstructions were carried out with an image field of 70×70 mm and a thickness of 1 mm The X-ray attenuation in Hounsfield units (HU) was determined in the cortex of the kidney in 3 independent regions of interest (ROI) (FIG. 2). All data were carried out by two independent blinded readers.
To determine the degree of vacuolization, a kidney was removed 24 after the injection of the XCMs and a medial piece of tissue was fixed in formaldehyde and embedded in paraffin. The microtome sections were stained with hematoxylin, and the degree of vacuolization was determined. The determination of the degree of vacuolization was carried out in a blinded experiment by Dr. Haider, Institut für Tierpathologie [Institute for Animal Pathology].

[2] = Renal cortex iodine content 24 hours after injection of XCM, X-ray attenuation by CT; settings: rat, 4 g of iodine per kg of BW i.v., 80 kV, mean +/- SD, 6 animals
Experimental: as §1, §2, §3

[3] = of 6 animals, listed as Iopromide 300
[4] = of 6 animals, listed as iopromide

Row | Compound | iodine concentration in the kidney (XFA) [1] | degree of vacuolization in the kidney (in words) (tubular cells) | No vacuolization (number of animals) (tubular cells; [3]) | Slight degree of vacuolization (number of animals) (tubular cells; [3]) | No vacuolization (number of animals) (tubular cells; [4]) | Slight degree of vacuolization (number of animals) (tubular cells; [4]) | X-ray attenuation in the renal cortex (CT) [2] | Moderate degree of vacuolization (number of animals) (tubular cells; of 6 animals) | Slight degree of vacuolization (number of animals) (tubular cells; of 6 animals) | Slight degree of vacuolization (number of animals) (tubular cells; of 6 animals, listed as Iomeprol 300)
1 | COCC(=O)Nc1c(I)c(C(=O)NCC(O)CO)c(I)c(C(=O)N(C)CC(O)CO)c1I (centres unmarked) [iopromide 300, N,N′-bis(2,3-dihydroxypropyl)-2,4,6-triiodo-5-[(methoxyacetyl)amino]-N-methyl-1,3-benzenedicarboxamide] | significantly lowest iodine contents | lowest degree of vacuolization | 2 | 4 | Two | four | significantly lowest values | – | – | –
2 | CC(=O)N(CC(O)CO)c1c(I)c(C(=O)NCC(O)CO)c(I)c(C(=O)NCC(O)CO)c1I (centres unmarked) [iohexyl 350] | – | increased vacuolization | – | – | – | – | – | 3 | 3 | –
3 | CN(C(=O)CO)c1c(I)c(C(=O)NCC(O)CO)c(I)c(C(=O)NCC(O)CO)c1I (centres unmarked) [iomeprol 300] | 0.738+/−0.098 mg of iodine per g of kidney tissue | increased vacuolization | – | – | – | – | 45.0+/−5.9 HU | – | all the animals investigated | 6
4 | CN(C(=O)CC(=O)N(C)c1c(I)c(C(=O)NC(CO)C(O)CO)c(I)c(C(=O)NC(CO)C(O)CO)c1I)c1c(I)c(C(=O)NC(CO)C(O)CO)c(I)c(C(=O)NC(CO)C(O)CO)c1I (centres unmarked) [iotrolan 300] | 3.4+/−0.6 mg of iodine per g of kidney tissue | – | – | – | – | – | 217.2+/−29.4 HU | – | – | –
